Where two headings read alike, the source gives them in different places. Where only a bound is given, the exact number is not on record here.

For experiment [1], the target named is T1, first (BD1: amino acids K57-E168) bromodomain of BRD4 (Homo sapiens, UniProt O60885).
T1 construct: His-tagged first (BD1: amino acids K57-E168)
Put plainly: TR-FRET bromodomain binding assay, BRD4 BD1. The settings on record: Ki calculated from IC50, probe Kd and probe concentration, read-out: TR-FRET Binding Ki: BRD4 (BDI_K57-E168). In short, it runs like this: (§1)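 His-tagged BRD4 BD1 (K57-E168) or BD2 ([…]) displacing an Alexa647-labelled BET-inhibitor probe in 20 mM sodium phosphate pH 6.0, 50 mM NaCl, 1 mM EDTA, 0.01% Triton X-100, 1 mM DTT.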

The target of experiment [2] is T2, second (BD2: amino acids E352-E168) bromodomain of BRD4 (Homo sapiens, UniProt O60885).
T2 construct: protocol
Put plainly: TR-FRET bromodomain binding assay, BRD4 BD2. The note with it: Ki calculated from IC50, probe Kd and probe concentration, read-out: TR-FRET Binding Ki: BRD4 (BDII_E352-M457). The procedure, abridged:
as §1

In experiment [3] the test system is breast cancer cell line MX-1. Put plainly: MX-1 cell line proliferation assay (3-day). The experiment is classed as cell-based. The settings on record: Homo sapiens, MX1, MX-1 cells, Cell Titer Glo, read-out: Cellular proliferation: EC50. In short, it runs like this:
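EC50 derived by sigmoidal fitting of Cell Titer Glo signal relative to DMSO controls. Compound, 3 μM down to 0.0001 μM final in 3-fold steps, was added to adhered MX-1 cells (5000/well, RPMI + 10% FBS) for a 3-day incubation at 37° C.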
For orientation: In ATP-based viability assays light output follows the ATP content of the culture.

[4] abbreviates: TR-FRET assay protocol (A-G, compound concentration range).
Setting [5] is: TR-FRET assay protocol (D, E or G) per compound.

In the case of `COc1cc(=O)n(C)nc1-c1cc(N)ccc1Oc1ccccc1` [Example 20, 6-(5-amino-2-phenoxyphenyl)-5-methoxy-2-methylpyridazin-3(2H)-one], the values for the Ki in experiment [1] (setting [4]) and in experiment [2] (setting [4]) were 2700 nM and 524 nM, respectively. The EC50 in experiment [3] (72 h incubation) was 7160 nM.

With `COC(=O)CCc1cc(=O)n(C)nc1-c1ccccc1Oc1ccccc1` [Example 220, methyl 3-[1-methyl-6-oxo-3-(2-phenoxyphenyl)-1,6-dihydropyridazin-4-yl]propanoate], the values for the Ki in experiment [1] (setting [4]) and in experiment [2] (setting [4]) were 24300 nM and 1910 nM, respectively. Further, the EC50 in experiment [3] (72 h incubation) amounted to 16400 nM.

Consider `CC(=O)NCc1ccc(-c2cc(=O)n(C)nc2-c2ccccc2Oc2ccccc2)cc1` [Example 99, N-{4-[1-methyl-6-oxo-3-(2-phenoxyphenyl)-1,6-dihydropyridazin-4-yl]benzyl}acetamide], for which the Ki (in general, the dissociation constant of the complex between target and ligand, obtained from inhibition or displacement) in experiment [1] (setting [4]) is 142 nM; in experiment [2] (setting [4]), 58.7 nM. For the same molecule, the EC50 in experiment [3] (72 h incubation) was found to be 558 nM.

Turning to `CCS(=O)(=O)Nc1ccc(Oc2ccc(OC3COC3)cc2F)c(-c2cn(C)c(=O)cc2OC2COC2)c1` [Example 336, N-{4-[2-fluoro-4-(oxetan-3-yloxy)phenoxy]-3-[1-methyl-4-(oxetan-3-yloxy)-6-oxo-1,6-dihydropyridin-3-yl]phenyl}ethanesulfonamide], the Ki in experiment [1] (setting [4]) was 21.4 nM; in experiment [2] (setting [4]) it was 1.67 nM. In addition, the EC50 in experiment [3] (72 h incubation) worked out at 165 nM.

As to `Cn1nc(-c2ccccc2Oc2ccccc2)c(-c2ccc(CN3CCCCC3)cc2)cc1=O` [Example 67, 2-methyl-6-(2-phenoxyphenyl)-5-[4-(piperidin-1-ylmethyl)phenyl]pyridazin-3(2H)-one], the inhibition constant (Ki) is 70.8 nM in experiment [1] (setting [4]) and 92.5 nM in experiment [2] (setting [4]). The EC50 in experiment [3] (72 h incubation) amounted to 1730 nM.

With `COc1cc(=O)n(C)nc1-c1cc(NS(=O)(=O)C2CCCC2)ccc1Oc1ccccc1` [Example 26, N-[3-(4-methoxy-1-methyl-6-oxo-1,6-dihydropyridazin-3-yl)-4-phenoxyphenyl]cyclopentanesulfonamide], the results for the Ki in experiment [1] (setting [4]) and in experiment [2] (setting [4]) were 569 nM and 104 nM, respectively. In addition, in experiment [3] (72 h incubation), the EC50 turned out to be 800 nM.

`Cn1nc(-c2ccccc2Oc2ccccc2)ccc1=O` [Example 1, 2-methyl-6-(2-phenoxyphenyl)pyridazin-3(2H)-one]: the inhibition constant (Ki) in experiment [1] (setting [4]) is 1870 nM; in experiment [2] (setting [4]), 2050 nM. Also, the EC50 in experiment [3] (72 h incubation) worked out at 20000 nM.

With `CCN(CC)Cc1ccc(-c2cc(=O)n(C)nc2-c2ccccc2Oc2ccccc2)cc1` [Example 69, 5-{4-[(diethylamino)methyl]phenyl}-2-methyl-6-(2-phenoxyphenyl)pyridazin-3(2H)-one], the Ki in experiment [1] (setting [4]) is 98 nM; in experiment [2] (setting [4]) it was 225 nM. In addition, the EC50 in experiment [3] (72 h incubation) was > 3000 nM.

For `CCS(=O)(=O)Nc1ccc(Oc2ccc(F)cc2F)c(-c2cn(C)c(=O)cc2OCC2CCNCC2)c1` [Example 399, N-{4-(2,4-difluorophenoxy)-3-[1-methyl-6-oxo-4-(piperidin-4-ylmethoxy)-1,6-dihydropyridin-3-yl]phenyl}ethanesulfonamide], the Ki is 31.1 nM in experiment [1] (setting [5]) and 20.1 nM in experiment [2] (setting [5]). In experiment [3] (72 hours with compound), the EC50 was > 3000 nM.

As for `CCS(=O)(=O)Nc1ccc(Oc2ccc(F)cc2F)c(-c2cn(C)c(=O)cc2OCC(C)(C)O)c1` [Example 376, N-{4-(2,4-difluorophenoxy)-3-[4-(2-hydroxy-2-methylpropoxy)-1-methyl-6-oxo-1,6-dihydropyridin-3-yl]phenyl}ethanesulfonamide], the Ki in experiment [1] (setting [5]) is 123 nM; in experiment [2] (setting [5]), 17.1 nM. For the same molecule, in experiment [3] (72 hours with compound), the EC50 worked out at 708 nM.

For the molecule `Cn1nc(-c2ccccc2Oc2ccccc2)c(-c2ccnc(F)c2)cc1=O` [Example 54, 5-(2-fluoropyridin-4-yl)-2-methyl-6-(2-phenoxyphenyl)pyridazin-3(2H)-one], the Ki in experiment [1] (setting [4]) is 4120 nM; in experiment [2] (setting [4]), 356 nM. The EC50 in experiment [3] (72 h incubation) was determined as 4240 nM.

Take `CCCS(=O)(=O)Nc1ccc(Oc2ccccc2)c(-c2nn(C)c(=O)cc2OC)c1` [Example 24, N-[3-(4-methoxy-1-methyl-6-oxo-1,6-dihydropyridazin-3-yl)-4-phenoxyphenyl]propane-1-sulfonamide]: the Ki in experiment [1] (setting [4]) was 326 nM; in experiment [2] (setting [4]), 108 nM. Besides, in experiment [3] (72 h incubation), the EC50 was 1010 nM.

As for `CCS(=O)(=O)Nc1ccc(Oc2ccc(F)cc2F)c(-c2cn(C)c(=O)cc2-c2cnn(C)c2)c1` [Example 342, N-{4-(2,4-difluorophenoxy)-3-[1-methyl-4-(1-methyl-1H-pyrazol-4-yl)-6-oxo-1,6-dihydropyridin-3-yl]phenyl}ethanesulfonamide], the Ki in experiment [1] (setting [4]) was 2.21 nM; in experiment [2] (setting [4]), 0.609 nM. The EC50 in experiment [3] (72 h incubation) turned out to be 91.2 nM.

Consider `CCS(=O)(=O)Nc1ccc(Oc2ccc(F)cc2F)c(-c2cn(C)c(=O)cc2OCCN2CCOCC2)c1` [Example 286, N-[4-(2,4-difluorophenoxy)-3-{1-methyl-4-[2-(morpholin-4-yl)ethoxy]-6-oxo-1,6-dihydropyridin-3-yl]phenyl}ethanesulfonamide], for which the Ki in experiment [1] (setting [4]) is 82.6 nM; in experiment [2] (setting [4]), 75.9 nM. The EC50 in experiment [3] (72 h incubation) was > 3000 nM.

In the case of `CCS(=O)(=O)Nc1ccc(Oc2ccc(F)cc2F)c(-c2cn(C)c(=O)cc2OCC(C)C)c1` [Example 290, N-{4-(2,4-difluorophenoxy)-3-[1-methyl-4-(2-methylpropoxy)-6-oxo-1,6-dihydropyridin-3-yl]phenyl}ethanesulfonamide], the Ki in experiment [1] (setting [4]) was 12 nM; in experiment [2] (setting [4]), 3.22 nM. In experiment [3] (72 h incubation), the EC50 was 138 nM.

Turning to `Cn1nc(-c2ccccc2Oc2ccccc2)c(-c2ccc(CN3CCNCC3)cc2)cc1=O` [Example 70, 2-methyl-6-(2-phenoxyphenyl)-5-[4-(piperazin-1-ylmethyl)phenyl]pyridazin-3(2H)-one], the Ki in experiment [1] (setting [4]) is 89.1 nM; in experiment [2] (setting [4]) it was 62 nM. In addition, the EC50 in experiment [3] (72 h incubation) was 815 nM.

Turning to `COc1cc(=O)n(C)nc1-c1cc(NS(=O)(=O)CC(F)(F)F)ccc1Oc1ccccc1` [Example 25, 2,2,2-trifluoro-N-[3-(4-methoxy-1-methyl-6-oxo-1,6-dihydropyridazin-3-yl)-4-phenoxyphenyl]ethanesulfonamide], the Ki in experiment [1] (setting [4]) is 97.4 nM; in experiment [2] (setting [4]) it was 12.5 nM. For the same molecule, the EC50 in experiment [3] (72 h incubation) came to 450 nM.

Take `Cn1nc(-c2ccccc2Oc2ccccc2)c(-c2ccc(CN3CCCC3)cc2)cc1=O` [Example 71, 2-methyl-6-(2-phenoxyphenyl)-5-[4-(pyrrolidin-1-ylmethyl)phenyl]pyridazin-3(2H)-one]: the Ki in experiment [1] (setting [4]) was 62.2 nM; in experiment [2] (setting [4]) it was 133 nM. For the same molecule, the EC50 in experiment [3] (72 h incubation) worked out at 398 nM.

Take `Cc1cc(-c2ccccc2Oc2ccccc2)c[nH]c1=O` [Example 260, 3-methyl-5-(2-phenoxyphenyl)pyridin-2(1H)-one]: the values for the Ki in experiment [1] (setting [4]) and in experiment [2] (setting [4]) were 216 nM and 406 nM, respectively. Besides, in experiment [3] (72 h incubation), the EC50 came to 2350 nM.

`CCOc1cc(=O)n(C)cc1-c1cc(NS(=O)(=O)CC)ccc1Oc1ccc(F)cc1` [Example 396, N-[3-(4-ethoxy-1-methyl-6-oxo-1,6-dihydropyridin-3-yl)-4-(4-fluorophenoxy)phenyl]ethanesulfonamide]: the results for the inhibition constant Ki in experiment [1] (setting [5]) and in experiment [2] (setting [5]) were 9.54 nM and 3.17 nM, respectively. Moreover, the EC50 in experiment [3] (72 hours with compound) amounted to 15.6 nM.

For the molecule `CC(=O)Nc1ccc(Oc2ccccc2)c(-c2c[nH]c(=O)c(C)c2)c1` [Example 262, N-[3-(5-methyl-6-oxo-1,6-dihydropyridin-3-yl)-4-phenoxyphenyl]acetamide], the Ki is 77.9 nM in experiment [1] (setting [4]) and 290 nM in experiment [2] (setting [4]). In addition, the EC50 in experiment [3] (72 h incubation) was found to be 783 nM.

With `Cn1nc(-c2ccccc2Oc2ccccc2)c(-c2ccc(CN3CCOCC3)cc2)cc1=O` [Example 66, 2-methyl-5-[4-(morpholin-4-ylmethyl)phenyl]-6-(2-phenoxyphenyl)pyridazin-3(2H)-one], the inhibitory constant (Ki) was 141 nM in experiment [1] (setting [4]) and 159 nM in experiment [2] (setting [4]). Besides, in experiment [3] (72 h incubation), the EC50 came to 2480 nM.

On to `CCOc1cc(=O)n(C)cc1-c1cc(S(=O)(=O)CC)ccc1NC1CC1` [Example 373, 5-[2-(cyclopropylamino)-5-(ethylsulfonyl)phenyl]-4-ethoxy-1-methylpyridin-2(1H)-one], for which the values for the Ki in experiment [1] (setting [5]) and in experiment [2] (setting [5]) were 118 nM and 167 nM, respectively. Moreover, in experiment [3] (72 hours with compound), the EC50 was determined as 859 nM.

On to `CCS(=O)(=O)Nc1ccc(Oc2ccc(F)cc2F)c(-c2cn(C)c(=O)cc2OC2CCN(C(=O)OC(C)(C)C)CC2)c1` [Example 319, tert-butyl 4-[(5-{2-(2,4-difluorophenoxy)-5-[(ethylsulfonyl)amino]phenyl}-1-methyl-2-oxo-1,2-dihydropyridin-4-yl)oxy]piperidine-1-carboxylate], for which the Ki in experiment [1] (setting [4]) is 316 nM; in experiment [2] (setting [4]), 104 nM. In addition, the EC50 in experiment [3] (72 h incubation) was determined as 322 nM.

On to `CC(=O)NCCc1ccc(-c2cc(=O)n(C)nc2-c2ccccc2Oc2ccccc2)cc1` [Example 100, N-(2-{4-[1-methyl-6-oxo-3-(2-phenoxyphenyl)-1,6-dihydropyridazin-4-yl]phenyl}ethyl)acetamide], for which the Ki in experiment [1] (setting [4]) was 143 nM; in experiment [2] (setting [4]), 72.2 nM. Besides, the EC50 in experiment [3] (72 h incubation) was > 3000 nM.
